PMC6222718, “Ethylenediamine Derived Carboxamides of Betulinic and Ursolic Acid as Potential Cytotoxic Agents” (Molecules : A Journal of Synthetic Chemistry and Natural …, 2018)

What was measured:
[1] = tested on: MCF-7 (breast adenocarcinoma); test: SRB cytotoxicity assay, MCF-7; type: cell-based, human; details: for EC50: Homo sapiens, MCF7, SRB assay, 96 h of treatment, MCF-7; for Selectivity index (SI) MCF-7: SI = EC50 (NIH 3T3)/EC50 (MCF-7)
Method: (§1) The cytotoxicity of ursolic and betulinic carboxamides 3–30 was determined in sulforhodamine B (SRB) assays.
(§2) The cell lines used were human cancer cell lines: 518A2 (melanoma), A2780 (ovarian carcinoma), HT29 (colon adenocarcinoma), MCF-7 (breast adenocarcinoma), 8505C (thyroid carcinoma) and non-malignant mouse fibroblasts NIH 3T3. Cultures were maintained as monolayers in RPMI 1640 medium with L-glutamine (Capricorn Scientific GmbH, Ebsdorfergrund, Germany) supplemented with 10% heat inactivated fetal bovineserum (Sigma-Aldrich Chemie GmbH, Steinheim, Germany) and penicillin/streptomycin (Capricorn Scientific GmbH, Ebsdorfergrund, Germany) at 37 °C in a humidified atmosphere with 5% CO2.
(§3) The cytotoxicity of the compounds was evaluated using the sulforhodamine-B (Kiton-Red S, ABCR) micro culture colorimetric assay. Cells were seeded into 96-well plates on day 0 at appropriate cell densities to prevent confluence of the cells during the period of experiment. After 24 h, the cells were treated with 6 different concentrations (1, 3, 7, 12, 20 and 30 µM) minimum. The final concentration of DMSO/DMF never exceeded 0.5%, which was non-toxic to the cells. After a 96 h treatment, the supernatant medium from the 96-well plates was discarded, the cells were fixed with 10% trichloroacetic acid (TCA) and allowed to rest at 4 °C. After 24 h fixation, the cells were washed in a strip washer and dyed with SRB solution (100 µL, 0.4% in 1% acetic acid) for about 20 min. After dying, the plates were washed four times with 1% acetic acid to remove the excess of the dye and allowed to air-dry overnight. Tris base solution (200 µL, 10 mM) was added to each well and absorbance was measured at λ = 570 nm using a 96-well plate reader (Tecan Spectra, Crailsheim, Germany). The EC50 values were averaged from three independent experiments performed each in triplicate calculated from semi logarithmic dose response curves applying a non-linear 4P Hills-slope equation (GraphPad Prism5; variables top and bottom were set to 100 and 0, respectively).

[2] = tested on: 518A2 (melanoma); test: SRB cytotoxicity assay, 518A2; type: cell-based, human; details: for EC50: Homo sapiens, SRB assay, 96 h of treatment, 518A2; for Selectivity index (SI) 518A2: SI = EC50 (NIH 3T3)/EC50 (518A2)
Method: as §1, §2, §3

[3] = tested on: A2780 (ovarian carcinoma); test: SRB cytotoxicity assay, A2780; type: cell-based, human; details: for EC50: Homo sapiens, SRB assay, 96 h of treatment, A2780; for Selectivity index (SI) A2780: SI = EC50 (NIH 3T3)/EC50 (A2780)
Method: as §1, §2, §3

[4] = tested on: non-malignant mouse fibroblasts NIH 3T3; test: SRB cytotoxicity assay, NIH 3T3; type: cell-based; details: NIH3T3, 96 h of treatment
Method: as §1, §2, §3

[5] = tested on: HT29 (colon adenocarcinoma); test: SRB cytotoxicity assay, HT29; type: cell-based, human; details: for EC50: Homo sapiens, HT-29, SRB assay, 96 h of treatment, HT29; for Selectivity index (SI) HT29: SI = EC50 (NIH 3T3)/EC50 (HT29)
Method: as §1, §2, §3

[6] = tested on: 8505C (thyroid carcinoma); test: SRB cytotoxicity assay, 8505C; type: cell-based, human; details: for EC50: Homo sapiens, SRB assay, 96 h of treatment, 8505C; for Selectivity index (SI) 8505C: SI = EC50 (NIH 3T3)/EC50 (8505C)
Method: as §1, §2, §3

Row | Structure (SMILES) | EC50 [1] [µM] | Selectivity index (SI) MCF-7 [1] | EC50 [2] [µM] | Selectivity index (SI) 518A2 [2] | EC50 [3] [µM] | Selectivity index (SI) A2780 [3] | EC50 [4] [µM] | EC50 [5] [µM] | Selectivity index (SI) HT29 [5] | melting point [°C] | EC50 [6] [µM] | Selectivity index (SI) 8505C [6]
1 | C=C(C)[C@@H]1CC[C@]2(C(=O)O)CC[C@]3(C)[C@H](CC[C@@H]4[C@@]5(C)CC[C@H](O)C(C)(C)[C@@H]5CC[C@]43C)[C@@H]12 [BA, betulinic acid, reference compound] | 10.2 ± 1.2 | 1.28 | 9.4 ± 0.7 | 1.39 | 8.8 ± 0.9 | 1.49 | 13.1 ± 1.1 | 14.4 ± 2.3 | 0.91 | – | – | –
2 | CC(=O)O[C@H]1CC[C@@]2(C)C(CC[C@]3(C)C2CC=C2C4[C@@H](C)[C@H](C)CC[C@]4(C(=O)NCCN)CC[C@]23C)C1(C)C (stereo partly drawn) [Compound 3, (3β)-N-(2-Aminoethyl)-3-acetyloxy-urs-12-en-28-amide] | 2 ± 0.1 | 1.30 | 2.7 ± 0.1 | 0.96 | 2.3 ± 0.1 | 1.13 | 2.6 ± 0.3 | 1.8 ± 0.1 | 1.44 | 202 to 205 | 4.1 ± 0.4 | 0.63
3 | CC(=O)O[C@H]1CC[C@@]2(C)C(CC[C@]3(C)C2CC=C2C4[C@@H](C)[C@H](C)CC[C@]4(C(=O)NCCN(C)C)CC[C@]23C)C1(C)C (stereo partly drawn) [Compound 4, (3β)-N-[2-(Dimethylamino)ethyl]-3-acetyloxy-urs-12-en-28-amide] | 3.3 ± 0.7 | 1.12 | 5.3 ± 0.4 | 0.70 | 3.6 ± 0.4 | 1.03 | 3.7 ± 0.2 | 3.4 ± 0.3 | 1.09 | 121 to 124 | 8.3 ± 0.7 | 0.45
4 | CC(=O)O[C@H]1CC[C@@]2(C)C(CC[C@]3(C)C2CC=C2C4[C@@H](C)[C@H](C)CC[C@]4(C(=O)NCCN4CCCC4)CC[C@]23C)C1(C)C (stereo partly drawn) [Compound 5, (3β)-N-(2-Pyrrolidin-1-ylethyl)-3-acetyloxy-urs-12-en-28-amide] | 2.9 ± 0.7 | 1.14 | 4.5 ± 0.2 | 0.73 | 3.1 ± 0.2 | 1.06 | 3.3 ± 0.3 | 2.1 ± 0.2 | 1.57 | 156 to 159 | 4.3 ± 0.2 | 0.77
5 | CC(=O)O[C@H]1CC[C@@]2(C)C(CC[C@]3(C)C2CC=C2C4[C@@H](C)[C@H](C)CC[C@]4(C(=O)NCCN4CCCCC4)CC[C@]23C)C1(C)C (stereo partly drawn) [Compound 6, (3β)-N-(2-Piperidin-1-ylethyl)-3-acetyloxy-urs-12-en-28-amide] | 6 ± 0.9 | 1.20 | 12.2 ± 0.3 | 0.59 | 6.5 ± 0.5 | 1.11 | 7.2 ± 1.2 | 4.2 ± 0.5 | 1.71 | 124 to 127 | 15.5 ± 2.7 | 0.46
6 | CC(=O)O[C@H]1CC[C@@]2(C)C(CC[C@]3(C)C2CC=C2C4[C@@H](C)[C@H](C)CC[C@]4(C(=O)NCCN4CCNCC4)CC[C@]23C)C1(C)C (stereo partly drawn) [Compound 7, (3β)-N-(2-Piperazin-1-ylethyl)-3-acetyloxy-urs-12-en-28-amide] | 2.7 ± 0.3 | 0.81 | 3.2 ± 0.1 | 0.69 | 2.4 ± 0.1 | 0.92 | 2.2 ± 0.1 | 1.8 ± 0.2 | 1.22 | 145 to 147 | 5.4 ± 0.4 | 0.41
